Series [1] deals with A2780 cells. The series can be described thus: Induction of apoptosis (Annexin V-FITC/PI flow cytometry). In kind it is cell-based, human. The conditions noted are these: A2780, complex 2 and 2 mM sodium formate, 24 h. On the procedure:
Flow cytometry analysis of apoptosis in A2780 cells caused by exposure to complex 2 and sodium formate were carried out using the Annexin V-FITC Apoptosis Detection Kit (Sigma Aldrich) according to the manufacturer’s instructions. […] Cells were harvested using trypsin and stained using PI/Annexin V-FITC. After staining, cell pellets were analysed in a Becton Dickinson FACScan Flow Cytometer. For positive-apoptosis controls, A2780 cells were exposed for 2 h to staurosporine (1 μg ml^−1). Cells for apoptosis studies were used with no previous fixing procedure as to avoid nonspecific binding of the annexin V-FITC conjugate.
For orientation: Flow cytometry measures light scatter and fluorescence of single cells or particles in a stream.

Series [2] has as its system A2780 cells. The series is described as follows: Induction of necrosis (7-ADD flow cytometry). In kind it is cell-based, human. As to conditions: A2780, complex 2 in presence and absence of 2 mM sodium formate, 24 h. On the procedure: Flow cytometry analysis of necrosis in A2780 cells caused by exposure to complex 2 and sodium formate was carried out using a Apotosis/Necrosis detection kit (Abcam) according to the manufacturer’s instructions. […] Cells were harvested using trypsin and stained using the membrane-impermeable nuclear dye 7-ADD (Ex/Em 546/647 nm). After staining in the dark, cell pellets were analysed in a Becton Dickinson FACScan Flow Cytometer. For positive-necrosis controls, A2780 cells were exposed to methanol.

Series [3] concerns MRC5 human fetal lung fibroblasts. The series is described as follows: In vitro growth inhibition assay (SRB), MRC5. In kind it is cell-based. On the procedure: A2780 human ovarian carcinoma and MRC5 human fetal lung fibroblasts were obtained from the European Collection of Cell Cultures. Both cell lines were grown in Roswell Park Memorial Institute medium (RPMI-1640) supplemented with 10% of fetal calf serum, 1% of 2 mM glutamine and 1% penicillin/streptomycin. All cells were grown as adherent monolayers at 310 K in a 5% CO2-humidified atmosphere and passaged at ca. 70–80% confluency.
The antiproliferative activity of complexes 1–8 was determined in A2780 ovarian cancer cells and MRC5 fibroblasts. Briefly, 96-well plates were used to seed 5,000 cells per well. The plates were left to pre-incubate with drug-free medium at 310 K for 48 h before adding different concentrations of the compounds to be tested. A drug exposure period of 24 h was allowed. After this, supernatants were removed by suction and each well was washed with PBS. […]
Supplementary Table 10: Antiproliferative activity of complex 2 in A2780 ovarian cancer cells and normal MRC5 human fetal lung fibroblasts, when co-administered with different concentrations of sodium formate (0 and 2 mM). All the experiments were performed as duplicates of triplicates in independent experiments and the error bars were calculated as the standard deviation from the mean. […]

Series [4] relates to A2780 cells. The series is described as follows: Cellular membrane integrity (CytoPainter flow cytometry). It counts as cell-based, human. The conditions noted are these: A2780, complex 2 alone or with 2 mM sodium formate, 24 h. On the procedure:
Flow cytometry analysis of cellular membrane integrity of A2780 cells caused by exposure to complex 2 and sodium formate were carried out using the CytoPainter assay (Abcam) according to the manufacturer’s instructions. […] Cells were harvested using trypsin and stained in the dark using CytoPainter Red (Ex/Em 583/603 nm), which reacts with cell surface amines in compromised membranes. After staining, cell pellets were analysed in a Becton Dickinson FACScan Flow Cytometer.

Series [5] can be described thus: Transfer hydrogenation of NAD+ to 1,4-NADH with formate, followed by 1H NMR. The conditions noted are these: NAD+ 2 mol equiv, formate 25 mol equiv, 310 K, pH* 7.2. The procedure: Complexes 1–7 were dissolved in MeOH-d4/D2O (5:1 v/v, 1.4 mM, 4 ml). Solutions of sodium formate (35 mM, 4 ml) and NAD^+ in D2O (2.8 mM, 2 ml) were also prepared and incubated at 310 K. In a typical experiment, 200-μl aliquots of each solution were added to a 5-mm NMR tube and the pH* adjusted to 7.2±0.1 (total volume 0.635 ml, final concentrations: Ru complex 0.44 mM; NAD^+ 0.88 mM; formate 11.02 mM; molar ratio 1:2:25). ^1H NMR spectra were recorded at 310 K every 162 s until the completion of the reaction.
Molar ratios of NAD^+ and NADH were determined by integrating the peaks at 9.33 and 6.96 p.p.m. (NAD^+ and 1,4-NADH, respectively). The turnover number for the reaction was calculated as follows: […]
where In is the integral of the signal at n p.p.m. and [NAD^+]0 is the concentration of NAD^+ at the start of the reaction.

A further series concerns CT-DNA. The series can be described thus: Circular dichroism of CT-DNA. In kind it is binding, calf. The conditions noted are these: different concentrations of complex 2. The procedure:
Supplementary Figure 4: Circular dichroism spectra of CT-DNA (1 mM) in red and CT-DNA (1 mM)/complex 2 (mol ratio 3:1) in black. Spectra were recorded under the same conditions, using (A) cacodylate buffer (2 mM, pH 7.4) and NaCl (20 mM) at 298 K, (B) PBS buffer (2 mM, pH 7.4) and NaCl (20 mM).
(1 picture or pasted object on this page, not shown here) […]
the nucleobases.11 Destabilization of DNA can result in a decrease of the melting […]
In the presence of complex 8, the melting temperature of CT-DNA increased In agreement with the literature, 12 by 14 K, in 2 mM NaCl, 2 mM cacodylate buffer.
This increase is due to Ru binding to DNA as well as intercalation. 12 However, upon increasing the chloride concentration by ca. 10x (20 mM NaCl) the melting temperature of CT-DNA in the presence of complex 8, increased only by 7 K. This effect has previously been reported and it is attributed to the partial inhibition of hydrolysis, and, therefore, inhibition of coordination to DNA. 12, 13
Experiments performed in the presence of complex 2, in 2 mM cacodylate buffer and […]
NaCl, no decrease of the melting temperature was observed. These experiments […]
Furthermore, strong binding to DNA can induce chirality in the metal complex, generating a CD signal. 14 CD spectra of CT-DNA in the presence of different concentrations of complex 2 were recorded (Supplementary Figure 4). […]
In general terms: Circular dichroism is widely used to follow secondary structure.

These results are taken from paper PMC4383003, “Transfer hydrogenation catalysis in cells as a new approach to anticancer drug design” (Nature Communications, 2015).

A word on the IC50: it is the concentration needed to halve the response being measured. Lower therefore signals higher potency.

Molecules are shown by their SMILES.

For the molecule `Cc1ccc(C(C)C)cc1.Cc1ccc(S(=O)(=O)[N-]CCN)cc1.[Cl-].[Ru+2]` [Complex 2, [(p-cym)Ru(TsEn)Cl]], in the series on A2780 cells [1], the induction of apoptosis entry is “no population of cells in either of these two stages of apoptosis was detected”. In addition, the induction of necrosis entry with A2780 cells [2] is given as “no cellular necrosis”. Besides, inhibition in series [3] (MRC5, formate 0 mM) was half-maximal at 48.5 ± 0.4 µM (IC50). Further, the selectivity factor in series [3] (ratio MRC5 fibroblasts / A2780, no formate) is listed as 3.6±0.2. Besides, the “cellular membrane integrity, FL2 fluorescence of CytoPainter red” value with A2780 cells [4] is recorded as “low fluorescence”. Also, in series [5] (23% MeOH-d4/77% D2O), the “TOF D2O/MeOH-d4” value was 2.88 ± 0.06 h⁻¹. For the same molecule, in series [5] (D2O), the “TOF D2O” value came to 1.58 ± 0.04 h⁻¹. Besides, the “changes in CD spectra of CT-DNA” value with CT-DNA is “No changes”.
